Reference: PubChem BioAssay AID180 (DTP/NCI, 2004)
Values joined by “and” are separate entries in the source; they are usually repeats but may differ in a detail not shown here. Equal values may be shown once.

System: BDF1 mice, Adenocarcinoma 755 s.c., tumor weight T/C
Test: NCI In Vivo Anticancer Drug Screen. Data for tumor model Adenocarcinoma 755 (subcutaneous) in B6D2F1 (BDF1) mice
Conditions: endpoint: mean tumor weight, higher = larger tumour
Outline: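 In vivo antitumor screen on a transplantable tumor line. Result equals the measure in compound-treated animals divided by the same measure in vehicle controls.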

[1] = dose: 125.0 mg/kg/injection, schedule: Q01DX011 (ip), vehicle: methylcellulose (MC)
[2] = dose: 250.0 mg/kg/injection, schedule: Q01DX011 (ip), vehicle: methylcellulose (MC)
[3] = dose: 30.0 mg/kg/injection, schedule: Q01DX011 (ip), vehicle: carboxymethylcellulose (CMC)
[4] = dose: 60.0 mg/kg/injection, schedule: Q01DX011 (ip), vehicle: carboxymethylcellulose (CMC)
[5] = dose: 120.0 mg/kg/injection, schedule: Q01DX011 (ip), vehicle: carboxymethylcellulose (CMC)
[6] = dose: 1000.0 mg/kg/injection, schedule: Q01DX011 (ip), vehicle: methylcellulose (MC)
[7] = dose: 75.0 mg/kg/injection, schedule: Q01DX011 (ip), vehicle: carboxymethylcellulose (CMC)

SMILES: O=S(=O)(O)c1cccnc1
- T/C (dose: 19.63 mg/kg/injection, schedule: Q01DX011 (ip), vehicle: carboxymethylcellulose (CMC)): 68 % of control
- T/C (dose: 37.36 mg/kg/injection, schedule: Q01DX011 (ip), vehicle: carboxymethylcellulose (CMC)): 91 % of control and 101 % of control
- T/C (dose: 39.25 mg/kg/injection, schedule: Q01DX011 (ip), vehicle: carboxymethylcellulose (CMC)): 99 % of control
- T/C (dose: 62.5 mg/kg/injection, schedule: Q01DX011 (ip), vehicle: methylcellulose (MC)): 108 % of control
- T/C (dose: 78.5 mg/kg/injection, schedule: Q01DX011 (ip), vehicle: carboxymethylcellulose (CMC)): 152 % of control
- T/C [1]: 76 % of control
- T/C (dose: 157.0 mg/kg/injection, schedule: Q01DX011 (ip), vehicle: carboxymethylcellulose (CMC)): 79 % of control
- T/C [2]: 95 % of control
- T/C (dose: 298.9 mg/kg/injection, schedule: Q01DX011 (ip), vehicle: carboxymethylcellulose (CMC)): 120 % of control

SMILES: O=C=NC(c1ccccc1)(c1ccccc1)c1ccccc1
- T/C (dose: 7.0 mg/kg/injection, schedule: Q01DX011 (ip), vehicle: carboxymethylcellulose (CMC)): 102 % of control
- T/C (dose: 14.0 mg/kg/injection, schedule: Q01DX011 (ip), vehicle: carboxymethylcellulose (CMC)): 103 % of control
- T/C (dose: 28.0 mg/kg/injection, schedule: Q01DX011 (ip), vehicle: carboxymethylcellulose (CMC)): 86 % of control and 87 % of control
- T/C (dose: 112.0 mg/kg/injection, schedule: Q01DX011 (ip), vehicle: carboxymethylcellulose (CMC)): 71 % of control

SMILES: Cn1c(=O)c2[nH]c(N/N=C/c3ccccc3C(=O)O)nc2n(C)c1=O
- T/C [3]: 103 % of control
- T/C [4]: 92 % of control
- T/C [5]: 88 % of control
- T/C (dose: 240.0 mg/kg/injection, schedule: Q01DX011 (ip), vehicle: carboxymethylcellulose (CMC)): 95 % of control

SMILES: NC(Cc1cccs1)C(=O)O (centres undefined)
- T/C (dose: 125.0 mg/kg/injection, schedule: Q01DX011 (ip), vehicle: carboxymethylcellulose (CMC)): 71 % of control and 72 % of control
- T/C [1]: 90 % of control
- T/C (dose: 250.0 mg/kg/injection, schedule: Q01DX011 (ip), vehicle: carboxymethylcellulose (CMC)): 91 % of control and 106 % of control
- T/C [2]: 155 % of control
- T/C (dose: 500.0 mg/kg/injection, schedule: Q01DX011 (ip), vehicle: carboxymethylcellulose (CMC)): 65 % of control and 78 % of control
- T/C (dose: 500.0 mg/kg/injection, schedule: Q01DX011 (ip), vehicle: methylcellulose (MC)): 59 % of control
- T/C (dose: 1000.0 mg/kg/injection, schedule: Q01DX011 (ip), vehicle: carboxymethylcellulose (CMC)): 96 % of control and 102 % of control
- T/C [6]: 52 % of control

SMILES: O=C(NC(CO)C(=O)O)C(Cl)Cl (centres undefined)
- T/C [6]: 93 % of control

SMILES: C[C@@H]1CN(C(=O)CCOS(C)(=O)=O)[C@@H](C)CN1C(=O)CCOS(C)(=O)=O
- T/C (dose: 4.0 mg/kg/injection, schedule: Q01DX011 (ip), vehicle: saline): 95 % of control
- T/C (dose: 8.0 mg/kg/injection, schedule: Q01DX011 (ip), vehicle: saline): 65 % of control
- T/C (dose: 9.4 mg/kg/injection, schedule: Q01DX011 (ip), vehicle: carboxymethylcellulose (CMC)): 104 % of control
- T/C (dose: 15.0 mg/kg/injection, schedule: Q01DX011 (ip), vehicle: carboxymethylcellulose (CMC)): 61 % of control
- T/C (dose: 16.0 mg/kg/injection, schedule: Q01DX011 (ip), vehicle: saline): 60 % of control
- T/C [3]: 32 % of control
- T/C (dose: 33.0 mg/kg/injection, schedule: Q01DX011 (ip), vehicle: carboxymethylcellulose (CMC)): 21 % of control
- T/C (dose: 33.0 mg/kg/injection, schedule: Q01DX011 (ip), vehicle: saline): 52 % of control
- T/C (dose: 37.5 mg/kg/injection, schedule: Q01DX011 (ip), vehicle: carboxymethylcellulose (CMC)): 59 % of control and 62 % of control
- T/C (dose: 50.0 mg/kg/injection, schedule: Q01DX011 (ip), vehicle: carboxymethylcellulose (CMC)): 27 % of control
- T/C (dose: 50.0 mg/kg/injection, schedule: Q01DX011 (ip), vehicle: saline): 15 % of control
- T/C [4]: 5 % of control
- T/C [7]: 9 % of control and 15 % of control and 23 % of control
- T/C (dose: 112.5 mg/kg/injection, schedule: Q01DX011 (ip), vehicle: carboxymethylcellulose (CMC)): 10 % of control
- T/C [5]: 4 % of control

SMILES: Cc1cccc(Nc2c(N)nc(N)nc2N)c1
- T/C (dose: 11.0 mg/kg/injection, schedule: Q01DX011 (ip), vehicle: carboxymethylcellulose (CMC)): 50 % of control
- T/C (dose: 22.0 mg/kg/injection, schedule: Q01DX011 (ip), vehicle: carboxymethylcellulose (CMC)): 61 % of control
- T/C (dose: 44.0 mg/kg/injection, schedule: Q01DX011 (ip), vehicle: carboxymethylcellulose (CMC)): 32 % of control
- T/C (dose: 88.0 mg/kg/injection, schedule: Q01DX011 (ip), vehicle: carboxymethylcellulose (CMC)): 48 % of control

SMILES: CN(C)c1nc(Cl)nc2c1nc(Cl)n2C1CCCCO1 (centres undefined)
- T/C [3]: 102 % of control
- T/C [4]: 85 % of control
- T/C [5]: 68 % of control

SMILES: CSc1ncc(Br)c(SCc2ccc(Cl)cc2Cl)n1
- T/C (dose: 15.0 mg/kg/injection, schedule: Q01DX011 (ip), vehicle: methylcellulose (MC)): 69 % of control
- T/C (dose: 31.0 mg/kg/injection, schedule: Q01DX011 (ip), vehicle: methylcellulose (MC)): 108 % of control
- T/C [2]: 60 % of control

SMILES: Nc1nc(N)c(N=O)c(Nc2ccc(Br)cc2)n1
- T/C (dose: 5.0 mg/kg/injection, schedule: Q01DX011 (ip), vehicle: methylcellulose (MC)): 71 % of control
- T/C (dose: 10.0 mg/kg/injection, schedule: Q01DX011 (ip), vehicle: methylcellulose (MC)): 32 % of control
- T/C (dose: 20.0 mg/kg/injection, schedule: Q01DX011 (ip), vehicle: methylcellulose (MC)): 20 % of control and 31 % of control
- T/C (dose: 22.0 mg/kg/injection, schedule: Q01DX011 (ip), vehicle: methylcellulose (MC)): 44 % of control
- T/C (dose: 40.0 mg/kg/injection, schedule: Q01DX011 (ip), vehicle: methylcellulose (MC)): 16 % of control
- T/C (dose: 44.0 mg/kg/injection, schedule: Q01DX011 (ip), vehicle: methylcellulose (MC)): 21 % of control
- T/C (dose: 88.0 mg/kg/injection, schedule: Q01DX011 (ip), vehicle: methylcellulose (MC)): 20 % of control and 30 % of control

SMILES: Nc1ncnc2c1nc(Br)n2C1OC(CO)C(O)C1O (centres undefined)
- T/C [3]: 117 % of control
- T/C [5]: 109 % of control

SMILES: O=[N+]([O-])c1ccc(Oc2cc(Cl)c(Cl)cc2Cl)c([N+](=O)[O-])c1
- T/C (dose: 100.0 mg/kg/injection, schedule: Q01DX011 (ip), vehicle: other): 91 % of control
- T/C (dose: 200.0 mg/kg/injection, schedule: Q01DX011 (ip), vehicle: carboxymethylcellulose (CMC)): 56 % of control and 74 % of control
- T/C (dose: 200.0 mg/kg/injection, schedule: Q01DX011 (ip), vehicle: other): 91 % of control
- T/C (dose: 400.0 mg/kg/injection, schedule: Q01DX011 (ip), vehicle: carboxymethylcellulose (CMC)): 61 % of control
- T/C (dose: 400.0 mg/kg/injection, schedule: Q01DX011 (ip), vehicle: other): 54 % of control
- T/C (dose: 800.0 mg/kg/injection, schedule: Q01DX011 (ip), vehicle: carboxymethylcellulose (CMC)): 19 % of control
- T/C (dose: 800.0 mg/kg/injection, schedule: Q01DX011 (ip), vehicle: other): 33 % of control

SMILES: O=C(CCBr)NCCCCNC(=O)CCBr
- T/C (dose: 56.0 mg/kg/injection, schedule: Q01DX011 (ip), vehicle: methylcellulose (MC)): 83 % of control
- T/C (dose: 113.0 mg/kg/injection, schedule: Q01DX011 (ip), vehicle: methylcellulose (MC)): 78 % of control

SMILES: CN(C)S(=O)(=O)c1nc(Cl)c2[nH]cnc2n1
- T/C (dose: 25.0 mg/kg/injection, schedule: Q01DX011 (ip), vehicle: carboxymethylcellulose (CMC)): 98 % of control
- T/C [7]: 89 % of control
- T/C (dose: 225.0 mg/kg/injection, schedule: Q01DX011 (ip), vehicle: carboxymethylcellulose (CMC)): 58 % of control

SMILES: CCCCCCSc1ncnc2nc[nH]c12
- T/C (dose: 31.0 mg/kg/injection, schedule: Q01DX011 (ip), vehicle: other): 93 % of control
- T/C (dose: 62.0 mg/kg/injection, schedule: Q01DX011 (ip), vehicle: other): 35 % of control
- T/C (dose: 125.0 mg/kg/injection, schedule: Q01DX011 (ip), vehicle: other): 2 % of control
- T/C (dose: 250.0 mg/kg/injection, schedule: Q01DX011 (ip), vehicle: other): 1 % of control
- T/C (dose: 300.0 mg/kg/injection, schedule: Q01DX010 (ip), vehicle: other): 5 % of control
- T/C (dose: 400.0 mg/kg/injection, schedule: Q01DX010 (ip), vehicle: other): 3 % of control

SMILES: CN1CC(=O)N=C1N
- T/C (dose: 250.0 mg/kg/injection, schedule: Q#A X022 (ip), vehicle: water): 47 % of control
- T/C (dose: 375.0 mg/kg/injection, schedule: Q#A X022 (ip), vehicle: water): 88 % of control
- T/C (dose: 500.0 mg/kg/injection, schedule: Q#A X022 (ip), vehicle: water): 36 % of control
- T/C (dose: 750.0 mg/kg/injection, schedule: Q#A X022 (ip), vehicle: water): 67 % of control
- T/C (dose: 1250.0 mg/kg/injection, schedule: Q#A X022 (ip), vehicle: water): 72 % of control
- T/C (dose: 1500.0 mg/kg/injection, schedule: Q#A X022 (ip), vehicle: water): 68 % of control
